Experimental findings from patent publication US20250199015A1, “CYCLIN-DEPENDENT KINASE 2 INHIBITORS FOR MEDICAL TREATMENT” (INCYCLIX BIO, LLC, priority 2022, published 2025) are described below.

The test system of data set [1] is OVCAR3 human ovary carcinoma CDX. In words: OVCAR3 cell line-derived xenograft (tumor volume, body weight, tumor Western blot). It counts as in vivo, mice. How it is done: 10 million OVCAR3 human ovary carcinoma cells were injected into athymic nude female mice. The study was initiated at a mean tumor volume of approximately 100-200 mm^3. […] The test agents were delivered at 5 mL/kg by oral gavage.
Tumors from FIG. 146A were harvested at the end of study and snap frozen. A small piece of each tumor was removed while frozen and lysed with 150 μL cold RIPA with protease and phosphatase inhibitors while being homogenized with mortar and pestle. Lysates were clarified by centrifugation at 14 kxg for 10 min at 4° C. and supernatants transferred to clean tubes. A BCA assay was performed to determine the protein concentration of each lysate. 30 μg of protein was mixed with sample buffer and reducing agent before being run on a 4-12% SDS-PAGE. Protein was transferred to a nitrocellulose membrane and blocked with LI-COR blocking buffer for 1 hour. Membranes were incubated overnight in primary antibody at 4° C. Following 3 washes with TBST, membranes were incubated for 45 minutes in LI-COR secondary antibodies. Following 2 washes in TBST, and one TBS wash, membranes were scanned using a LI-COR OdysseyCLx. Image studio was used for image analysis.

For data set [2], the system named is caspase 3/7 in H526 cells. In words: CaspaseGlo-3/7 activation. It counts as cell-based, human. How it is done: Plates were removed from incubator and treated with CaspaseGlo-3/7 (Promega, Inc) following manufacturer specifications. Plates were then read on a Biotech luminometer with 1 sec/well integration. Results were converted to Microsoft Excel and transferred to GraphPad Prism for Analysis (FIG. 22D).
Plates were removed from the incubator at each specified timepoint and treated with CaspaseGlo-3/7 (Promega, Inc) following manufacturer specifications. Plates were then read on Biotech luminometer with 1 sec/well integration. Results were converted to Microsoft Excel and transferred to GraphPad Prism for Analysis (FIG. 27A-C).

The test system of data set [3] is pRb, cyclin E in FUOV-1 cells. In words: Western blot pRb and cell cycle proteins. It counts as cell-based, human. The conditions noted are these: 30-1000 nM, 24 hours. The protocol: An independent human ovarian carcinoma cell line, FUOV-1, was grown in DMEM/F12/1× Glutamax/10% fetal bovine serum and plated at 300,000 cells/well in Corning 6 well tissue culture treated plates. Cells were incubated at […] for 24 hours prior to addition of 2 replicates of 0.1% DMSO control and 1 replicate for each treatment. […] Cells were collected by washing each well twice with cold PBS, then scraping cells in the presence of 150 μL cold RIPA with protease and phosphatase inhibitors. Lysates were clarified by centrifugation at 14,000×g for 10 min at 4° C. and supernatants transferred to clean tubes. A BCA assay was performed to determine the protein concentration of each lysate. A total of 30 μg of protein was mixed with sample buffer and reducing agent before being run on a 4-12% SDS-PAGE. Protein was transferred to a nitrocellulose membrane and blocked with LI-COR blocking buffer for 1 hour. Membranes were incubated overnight in primary antibody at 4° C. Following 3 washes with TBS-T, membranes were incubated for 45 minutes in LI-COR secondary antibodies. Following 2 washes in TBS-T, and one TBS wash, membranes were scanned using a LI-COR OdysseyCLx. Image studio was used for image analysis.
(In general: In western blotting, separated proteins are transferred to a membrane and probed.)

Data set [4] can be described thus: Plasma protein binding. It counts as in vitro ADME. As to conditions: across all species tested, read-out: bound to plasma proteins.
In data set [5] the target is multidrug resistance mutation (MDR) 1 (Homo sapiens, UniProt P08183). As to the kind of experiment: Transporter inhibition. It counts as in vitro ADME.
Data set [6] deals with Hs68 normal foreskin fibroblast cells. In words: Cell cycle by EdU flow cytometry, normal fibroblasts. It is filed as cell-based, human. The conditions noted are these: 300 nM, 24 hours, alone or in combination with cisplatin. How it is done: The Hs68 normal foreskin fibroblast cell line was grown in DMEM-high glucose/1× Glutamax/10% fetal bovine serum and was plated at 30,000 cells/well in Corning 6 well tissue culture treated plates. Cells were incubated at 37° C. for 24 hours prior to addition of the first treatment. […] Cells were treated to 24 hours post-initial treatment, with 10 μM EdU added at hour 23. Cells were collected and fixed in 1% paraformaldehyde. Cells were incubated with pacific blue azide dye as described by Thermo Scientific. Cells were then incubated with antibody against γ-H2AX at a ratio of 1:50 before incubation with FarRed dye and RNase. Cells were analyzed on a BD Celesta and data compiled using FloJo and GraphPad. Cell cycle profiles were evaluated following treatment via Flow Cytometry using FlowJo (v10.0) software.
A general note: A flow cytometer gives signals particle by particle.

Data set [7] has as its target T1, human OATP1B3 (Homo sapiens, UniProt Q9NPD5).
T1 construct: expressed in transfected cells; host or cells: HEK293
T1 sequence (Q9NPD5 1-702): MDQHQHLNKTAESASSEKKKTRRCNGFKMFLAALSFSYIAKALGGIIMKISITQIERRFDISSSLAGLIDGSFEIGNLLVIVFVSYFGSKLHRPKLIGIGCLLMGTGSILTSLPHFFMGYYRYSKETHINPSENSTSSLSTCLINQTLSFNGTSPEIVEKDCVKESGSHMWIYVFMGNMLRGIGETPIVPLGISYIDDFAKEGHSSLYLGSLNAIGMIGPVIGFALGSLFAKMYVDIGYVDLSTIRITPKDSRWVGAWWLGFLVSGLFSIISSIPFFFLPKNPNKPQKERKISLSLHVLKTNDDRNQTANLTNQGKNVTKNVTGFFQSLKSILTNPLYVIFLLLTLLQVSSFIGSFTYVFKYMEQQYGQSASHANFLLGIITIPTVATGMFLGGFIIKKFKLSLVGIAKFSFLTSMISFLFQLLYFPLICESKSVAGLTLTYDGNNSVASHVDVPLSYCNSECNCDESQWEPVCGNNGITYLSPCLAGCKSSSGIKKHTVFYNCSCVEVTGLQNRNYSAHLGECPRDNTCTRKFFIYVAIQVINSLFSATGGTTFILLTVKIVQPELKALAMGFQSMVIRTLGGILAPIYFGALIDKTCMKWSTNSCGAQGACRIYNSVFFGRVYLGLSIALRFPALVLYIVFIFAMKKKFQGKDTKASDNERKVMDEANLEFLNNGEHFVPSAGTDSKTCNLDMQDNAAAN
As to the kind of experiment: SLC transporter inhibition in HEK293 cells. It counts as in vitro ADME.

Data set [8] relates to COV318 cells. In words: Cell cycle by EdU flow cytometry. It counts as cell-based, human. The conditions noted are these: 10 nM to 10 μM, 24 hours. The protocol:
Cells were plated at 100,000 cells/well in Corning 6 cm tissue culture treated plates. […] Cells were collected and fixed in 1% paraformaldehyde. Cells were incubated with Alexa488 azide dye as described by Thermo Scientific. Cells were then incubated with […]-violet and RNase. Cells were analyzed on a BD Celesta and data compiled using FloJo and GraphPad.

The structures appear in SMILES notation. Where two headings read alike, the source gives them in different places.

For `NS(=O)(=O)c1ccc(Nc2ncc3cc4n(c3n2)C2(CCCCC2)C(=O)NN4)cc1` [Compound I], the tumor outcome is listed as “tumor stasis” in data set [1] (100 mg/kg BID, 42 days); “durable tumor stasis or regression” in data set [1] (100 mpk BID and 200 mpk QD, out to 42 days). In data set [1] (200 mg/kg QD, 42 days), the tumour growth inhibition (TGI) turned out to be 89%. Also, the “Rb1 phosphorylation and cyclin A2 levels in ex vivo tumor samples” value in data set [1] (100 mpk BID, at least 24 hours post-final dose) is “substantially reduces Rb1 phosphorylation and cyclin A2 levels”. In data set [1] (at any point), this compound registered a body weight loss not above 5%. The “caspase 3/7 activation” value in data set [2] (24 hours) is “no appreciable caspase 3/7 activation”. In addition, the concentration for half-maximal inhibition (IC50) was 0.129 µM in data set [2] (72 hours); 0.181 µM in data set [2] (Homo sapiens, NCI-H526, 48 h, 48 hours); 0.116 µM in data set [2] (Homo sapiens, NCI-H526, 72 h, 72 hours); 6.22 µM in data set [7] (OATP1B3, HEK293 cells, read-out: IC50); 6.22 µM in data set [7] (read-out: OATP1B3 IC50). Also, the “cyclin E amplification” value in data set [3] is given as “no cyclin E amplification was observed”. Moreover, the pRb levels entry in data set [3] is on record as “decreases pRb levels in a dose-dependent manner”. Moreover, the fraction unbound in data set [4] was less than 0.056. The MDR1 inhibition result in data set [5] was “did not inhibit”. The cell cycle changes result in data set [6] is “Few cell cycle changes were observed”. In data set [7] (OATP1B3, HEK293 cells), the “Maximum Percent inhibition” value is 91%. Further, the “cell cycle distribution with increasing concentrations” value in data set [8] was “exit the S-phase and increasingly occupy the G0-G1 phase”.

In general, TGI refers to the reduction of tumour growth relative to the control group. In general, IC50 refers to the midpoint of a concentration-inhibition curve.
